According to patent US10472347B2, “Aminopyrazine compounds with A2A antagonist properties” (Merck Sharp & Dohme Corp., priority 2014, dated 2019):
pKi: −log10 of the molar value.

biological target: T1, human A2a receptor (Homo sapiens, UniProt P29274); experiment: A2a competition binding assay, Scintillation Proximity technology; settings: membranes from HEK293 cells expressing human A2a receptor; Ki by Cheng-Prusoff equation
T1 construct: purchased Perkin-Elmer RBHA2AM400UA; host or cells: HEK293 cells (membranes)
T1 sequence (P29274 whole entry): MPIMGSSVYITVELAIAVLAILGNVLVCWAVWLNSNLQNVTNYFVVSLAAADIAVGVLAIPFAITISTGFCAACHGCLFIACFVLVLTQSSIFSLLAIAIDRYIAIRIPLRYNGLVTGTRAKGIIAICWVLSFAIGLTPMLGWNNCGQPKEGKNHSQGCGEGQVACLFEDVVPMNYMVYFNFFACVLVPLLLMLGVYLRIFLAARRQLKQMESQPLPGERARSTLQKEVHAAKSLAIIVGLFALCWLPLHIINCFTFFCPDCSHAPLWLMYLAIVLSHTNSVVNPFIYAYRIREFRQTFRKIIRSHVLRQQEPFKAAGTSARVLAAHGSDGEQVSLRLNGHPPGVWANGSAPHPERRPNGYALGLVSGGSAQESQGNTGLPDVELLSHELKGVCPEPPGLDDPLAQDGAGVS
How it was run: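 SPA competition: 0.5 nM tritiated pyrazolotriazolopyrimidine ligand displaced by compound at 3000 to 0.15 nM, 1 h room temperature, human A2a HEK293 membranes pretreated with adenosine deaminase, PBS/10 mM MgCl2 buffer. CGS15943 1 μM defined non-specific binding; EC50 converted to Ki via Cheng-Prusoff.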

pKi	Compound
9.70	Cc1nc(C(=O)NCc2ncccc2CF)c(N)nc1-c1ncco1 [Ex-224, 3-amino-N-{[3-(fluoromethyl)pyridin-2-yl]methyl}-6-methyl-5-(1,3-oxazol-2-yl)pyrazine-2-carboxamide]
9.75	Cc1nc(C(=O)NCc2ncccc2CO)c(N)nc1-c1ncco1 [Ex-225, 3-amino-N-{[3-(hydroxymethyl)pyridin-2-yl]methyl}-6-methyl-5-(1,3-oxazol-2-yl)pyrazine-2-carboxamide]
8.76	Cc1nc(C(=O)NCc2cccc3c2cnn3CC(F)F)c(N)nc1-c1ncco1 [Ex-228, 3-amino-N-{[1-(2,2-difluoroethyl)-1H-indazol-4-yl]methyl}-6-methyl-5-(1,3-oxazol-2-yl)pyrazine-2-carboxamide]
9.45	Cc1nc(C(=O)NCc2cccc3c2ncn3CC2CC2)c(N)nc1-c1ncco1 [Ex-229, 3-amino-N-{[1-(cyclopropylmethyl)-1H-benzimidazol-4-yl]methyl}-6-methyl-5-(1,3-oxazol-2-yl)pyrazine-2-carboxamide]
9.61	Cc1nc(C(=O)NC2Cc3ccccc3C2)c(N)nc1-c1ncco1 [Ex-235, 3-amino-N-(2,3-dihydro-1H-inden-2-yl)-6-methyl-5-(1,3-oxazol-2-yl)pyrazine-2-carboxamide]
8.79	Cc1ccc(C(C)(C)O)nc1CNC(=O)c1nc(C)c(-c2ncco2)nc1N [Ex-236, 3-amino-N-{[6-(1-hydroxy-1-methylethyl)-3-methylpyridin-2-yl]methyl}-6-methyl-5-(1,3-oxazol-2-yl)pyrazine-2-carboxamide]
8.75	COc1ccc(C(C)(C)O)nc1CNC(=O)c1nc(C)c(-c2ncco2)nc1N [Ex-237, 3-amino-N-{[6-(1-hydroxy-1-methylethyl)-3-methoxypyridin-2-yl]methyl}-6-methyl-5-(1,3-oxazol-2-yl)pyrazine-2-carboxamide]
7.39	Cc1nc(C(=O)NC2CC(O)c3cccnc32)c(N)nc1-c1ncco1 (stereo not shown) [Ex-240A, 3-amino-N-(5-hydroxy-6,7-dihydro-5H-cyclopenta[b]pyridin-7-yl)-6-methyl-5-(1,3-oxazol-2-yl)pyrazine-2-carboxamide]
8.76	Cc1nc(C(=O)NC2CC(O)c3cccnc32)c(N)nc1-c1ncco1 (stereo not shown) [Ex-240B, 3-amino-N-(5-hydroxy-6,7-dihydro-5H-cyclopenta[b]pyridin-7-yl)-6-methyl-5-(1,3-oxazol-2-yl)pyrazine-2-carboxamide]
8.96	CCn1ncc2c(CNC(=O)c3nc(C)c(-c4ncco4)nc3N)cccc21 [Ex-242, 3-amino-N-[(1-ethyl-1H-indazol-4-yl)methyl]-6-methyl-5-(1,3-oxazol-2-yl)pyrazine-2-carboxamide]
7.82	CCn1cc2c(CNC(=O)c3nc(C)c(-c4ncco4)nc3N)cccc2n1 [Ex-243, 3-amino-N-[(2-ethyl-2H-indazol-4-yl)methyl]-6-methyl-5-(1,3-oxazol-2-yl)pyrazine-2-carboxamide]
8.46	Cc1nc(C(=O)NCc2ncccc2C(F)(F)F)c(N)nc1-c1cnco1 [Ex-249, 3-amino-6-methyl-5-(1,3-oxaol-5-yl)-N-{[3-(trifluoromethyl)-pyridin-2-yl]-methyl}pyrazine-2-carboxamide]
8.62	Nc1nc(-c2cnco2)c(Cl)nc1C(=O)NCc1cccc2cccnc12 [Ex-250, 3-amino-6-chloro-5-(1,3-oxazol-5-yl)-N-(quinolin-8-ylmethyl)pyrazine-2-carboxamide]
8.96	Cc1nc(C(=O)NCc2c(F)cccc2F)c(N)nc1-c1cnco1 [Ex-251, 3-amino-N-(2,6-difluorobenzyl)-6-methyl-5-(1,3-oxazol-5-yl)pyrazine-2-carboxamide]
8.74	Cc1cccnc1CNC(=O)c1nc(C)c(-c2cnco2)nc1N [Ex-252, 3-amino-6-methyl-N-[(3-methylpyridin-2-yl)methyl]-5-(1,3-oxazol-5-yl)pyrazine-2-carboxamide]
8.07	Cc1nc(C(=O)NCc2ccc(F)cc2F)c(N)nc1-c1cnco1 [Ex-253, 3-amino-N-(2,4-difluorobenzyl)-6-methyl-5-(1,3-oxazol-5-yl)pyrazine-2-carboxamide]
8.83	COc1ccccc1CNC(=O)c1nc(C)c(-c2cnco2)nc1N [Ex-254, 3-amino-N-(2-methoxybenzyl)-6-methyl-5-(1,3-oxazol-5-yl)pyrazine-2-carboxamide]
9.70	Cc1nc(C(=O)NCc2c(Cl)cccc2Cl)c(N)nc1-c1cnco1 [Ex-255, 3-amino-N-(2,6-dichlorobenzyl)-6-methyl-5-(1,3-oxazol-5-yl)pyrazine-2-carboxamide]
9.71	Cc1cccc(Cl)c1CNC(=O)c1nc(C)c(-c2cnco2)nc1N [Ex-256, 3-amino-N-(2-chloro-6-methylbenzyl)-6-methyl-5-(1,3-oxazol-5-yl)pyrazine-2-carboxamide]
8.71	Cc1nc(C(=O)NCc2ncccc2C(F)(F)F)c(N)nc1-c1cnco1 [Ex-257, 3-amino-6-methyl-5-(1,3-oxazol-5-yl)-N-{[3-(trifluoromethyl)pyridin-2-yl]methyl}pyrazine-2-carboxamide]

pKi	Compound
8.54	Cc1cc(Cl)cc(Cl)c1CNC(=O)c1nc(C)c(-c2cnco2)nc1N [Ex-258, 3-amino-N-(2,4-dichloro-6-methylbenzyl)-6-methyl-5-(1,3-oxazol-5-yl)pyrazine-2-carboxamide]
6.39	Cc1nc(C(=O)NC(C)(C)c2ccccn2)c(N)nc1-c1cnco1 [Ex-259, 3-amino-6-methyl-N-(1-methyl-1-pyridin-2-ylethyl)-5-(1,3-oxazol-5-yl)pyrazine-2-carboxamide]
6.10	Cc1nc(C(=O)NC(C)(C)c2ccc(F)c(F)c2)c(N)nc1-c1cnco1 [Ex-260, 3-amino-N-[1-(3,4-difluorophenyl)-1-methylethyl]-6-methyl-5-(1,3-oxazol-5-yl)pyrazine-2-carboxamide]
5.85	Cc1nc(C(=O)NC(C)(C)c2ccncc2)c(N)nc1-c1cnco1 [Ex-261, 3-amino-6-methyl-N-(1-methyl-1-pyridin-4-ylethyl)-5-(1,3-oxazol-5-yl)pyrazine-2-carboxamide]
6.47	Cc1nc(C(=O)NCC(C)(F)F)c(N)nc1-c1cnco1 [Ex-262, 3-amino-N-(2,2-difluoropropyl)-6-methyl-5-(1,3-oxazol-5-yl)pyrazine-2-carboxamide]
8.43	Cc1cccc(CNC(=O)c2nc(C)c(-c3cnco3)nc2N)n1 [Ex-263, 3-amino-6-methyl-N-[(6-methylpyridin-2-yl)methyl]-5-(1,3-oxazol-5-yl)pyrazine-2-carboxamide]
6.44	Nc1nc(-n2ccnn2)c(Cl)nc1C(=O)NCc1ccccc1C(F)(F)F [Ex-268, 3-amino-6-chloro-5-(1H-1,2,3-triazol-1-yl)-N-[2-(trifluoromethyl)benzyl] pyrazine-2-carboxamide]
8.37	Nc1nc(-n2nccn2)c(Cl)nc1C(=O)NCc1ccccc1C(F)(F)F [Ex-269, 3-amino-6-chloro-5-(2H-1,2,3-triazol-2-yl)-N-[2-(trifluoromethyl)benzyl] pyrazine-2-carboxamide]
5.19	Nc1nc(-n2ccnn2)c(Cl)nc1C(=O)NCc1ccc(F)cc1F [Ex-270, 3-amino-6-chloro-N-(2,4-difluorobenzyl)-5-(1H-1,2,3-triazol-1-yl)pyrazine-2-carboxamide]
8.21	Nc1nc(-n2nccn2)c(Cl)nc1C(=O)NCc1ccc(F)cc1F [Ex-271, 3-amino-6-chloro-N-(2,4-difluorobenzyl)-5-(2H-1,2,3-triazol-2-yl)pyrazine-2-carboxamide]
6.57	Nc1nc(-n2ccnn2)c(Cl)nc1C(=O)NCc1cccc2cccnc12 [Ex-272, 3-amino-6-chloro-N-(quinolin-8-ylmethyl)-5-(1H-1,2,3-triazol-1-yl)pyrazine-2-carboxamide]
8.65	Nc1nc(-n2nccn2)c(Cl)nc1C(=O)NCc1cccc2cccnc12 [Ex-273, 3-amino-6-chloro-N-(quinolin-8-ylmethyl)-5-(2H-1,2,3-triazol-2-yl)pyrazine-2-carboxamide]
8.70	Cc1nc(C(=O)NCc2c(F)cccc2F)c(N)nc1-n1nccn1 [Ex-274, 3-amino-N-(2,6-difluorobenzyl)-6-methyl-5-(2H-1,2,3-triazol-2-yl)pyrazine-2-carboxamide]
8.68	Cc1nc(C(=O)NCc2cccc3cccnc23)c(N)nc1-n1nccn1 [Ex-275, 3-amino-6-methyl-N-(quinolin-8-ylmethyl)-5-(2H-1,2,3-triazol-2-yl)pyrazine-2-carboxamide]
6.39	CCOC(=O)c1nc(C)c(-n2nccn2)nc1N [Ex-276, ethyl 3-amino-6-methyl-5-(2H-1,2,3-triazol-2-yl)pyrazine-2-carboxylate]
8.48	Cc1cccnc1CNC(=O)c1nc(C)c(-n2nccn2)nc1N [Ex-277, 3-amino-6-methyl-N-[(3-methylpyridin-2-yl)methyl]-5-(2H-1,2,3-triazol-2-yl)pyrazine-2-carboxamide]
6.72	Cc1cccnc1CNC(=O)c1nc(C)c(-n2ccnn2)nc1N [Ex-278, 3-amino-6-methyl-N-[(3-methylpyridin-2-yl)methyl]-5-(1H-1,2,3-triazol-1-yl)pyrazine-2-carboxamide]
7.23	Cc1nc(C(=O)NCc2ccc(Cl)cc2Cl)c(N)nc1-n1nccn1 [Ex-279, 3-amino-N-(2,4-dichlorobenzyl)-6-methyl-5-(2H-1,2,3-triazol-2-yl)pyrazine-2-carboxamide]
6.83	Cc1nc(C(=O)NC2CCNc3ccccc32)c(N)nc1-n1nccn1 (stereo not shown) [Ex-280, 3-amino-6-methyl-N-(1,2,3,4-tetrahydroquinolin-4-yl)-5-(2H-1,2,3-triazol-2-yl)pyrazine-2-carboxamide]
8.24	Nc1nc(-n2nccn2)c(Cl)nc1C(=O)N[C@@H]1CCc2ccccc21 [Ex-281, 3-amino-6-chloro-N-[(1R)-2,3-dihydro-1H-inden-1-yl]-5-(2H-1,2,3-triazol-2-yl)pyrazine-2-carboxamide]
